In PubChem BioAssay AID2305 (GlaxoSmithKline (GSK), 2010):

System: P. falciparum 3D7 growth, pLDH absorbance
Assay: blood-stage malaria parasite growth potency – strain 3D7, dose response (AID 2305)

Row | Compound | IC50 [nM]
1 | O=C(/C=C/c1ccc(C(F)(F)F)cc1)NCCCCCN1CCCN(C(=O)Nc2ccc(Cl)cc2)CC1 | 870
2 | CC(=O)c1ccc(NC(=O)CSc2nc(-c3ccccc3Cl)ns2)cc1 | 1130
3 | c1cc(-c2ccc(CNCc3ccc(-c4csnn4)cc3)cc2)cc(-c2nc3ccccc3[nH]2)c1 | 160
4 | CCCCOC(=O)[C@H](CCC)NC(=O)c1ccc(NS(=O)(=O)c2ccc3nc(N)[nH]c(=O)c3c2)cc1 | 200
5 | COc1ccc(-c2cnc3[nH]cc(-c4ccc(C(=O)O)c(C)c4)c3c2)cn1 | 310
6 | CS(=O)(=O)CCNCc1ccc(-c2ccc3ncnc(Nc4ccc(OCc5ccccc5)c(Cl)c4)c3c2)o1 | 560
7 | O=C1C(c2ccccc2)=C(Nc2cccc(OC(F)(F)C(F)F)c2)c2ccccc21 | 180
8 | CCCC(C)C(=O)N1CCOC(COCc2cccc(C(F)(F)F)c2)(c2ccc(Cl)cc2)C1 (centres undefined) | 400
9 | COC(=O)C1(NC(=O)c2ccc(-n3nc(C)c(-c4ccccc4)c3N)cc2)CCCC1 | 370
10 | CN1CCC(C(=O)Nc2ccc(-c3ccc(-c4nc5ccccc5[nH]4)s3)cc2)CC1 | 820
11 | Cc1nnsc1C(=O)Nc1cccc(-c2ccc(-c3nc4ccccc4[nH]3)s2)c1 | 880
12 | COc1ccc2nccc(NC(=O)C3(O)CCC(NCc4ccc5c(c4)NCCS5)CC3)c2n1 (centres undefined) | 600
13 | COc1ccc(-c2nnc(Sc3ccc(C#N)c([N+](=O)[O-])c3)n2CCC(C)C)cc1 | 1110
14 | Cc1ccc(O)cc1Nc1ccnc2cc(-c3cccc(CNCCS(C)(=O)=O)c3)ccc12 | 840
15 | CC(Cc1ccc(OCCCCOc2ccccc2)cc1)NCCCc1nc2ccccc2[nH]1 (centres undefined) | 980
16 | NC1CCN(Cc2ccc(-c3cccc(-c4nc5ccccc5[nH]4)c3)cc2)C1 (centres undefined) | 850
17 | O=C(Nc1ccc(OC2CCN(Cc3ccccc3)CC2)c(Cl)c1)c1ccco1 | 410
18 | O=C(NCCCCCN1CCC(c2c[nH]c3ccccc23)C1)Nc1ccc(Cl)c(Cl)c1 (centres undefined) | 810
19 | Cc1cccc2[nH]c(-c3ccc(-c4ccc(NC(=O)Nc5ccsc5)cc4)cc3)nc12 | 170
20 | CC(Cc1ccc(OCCCCOc2ccccc2)cc1)NCCc1ccc(Oc2ccccc2)cc1 (centres undefined) | 810
21 | CN1CCN(CC(=O)Nc2ccc(-c3ccc(-c4nc5ccc(C(F)(F)F)cc5[nH]4)cc3)cc2)CC1 | 420
22 | CC(=O)NCCCCC1NC2(C(=O)N(Cc3ccc(C(C)(C)C)cc3)c3ccccc32)C2C(=O)N(C3CCCCC3)C(=O)C12 (centres undefined) | 790
23 | CCn1c(-c2nonc2N)nc2c(-c3cccc(NC(=O)Nc4ccccc4Cl)c3)ncc(OCCCN)c21 | 670
24 | Nc1cccc(CNCc2cccc(-c3cccc(-c4nc5ccccc5[nH]4)c3)c2)c1 | 610

Row | Compound | IC50 [nM]
25 | O=C(NC1CCN(Cc2ccccc2)CC1)c1ccc(-c2nc3cc4ccccc4cc3[nH]2)s1 | 600
26 | O=C(Nc1cccc(-c2cccc(CN3CCCC3)c2)c1)c1ccc(Cl)cc1 | 680
27 | Cc1cccc2[nH]c(-c3ccc(-c4cccc(NC(=O)C(C)CN5CCN(C)CC5)c4)s3)nc12 (centres undefined) | 750
28 | CN1CCC(N(C)c2nccc(N3CCN(Cc4cncn4Cc4ccccc4)CC3)n2)CC1 | 700
29 | CN(C1CCC(NC(=O)/C=C/c2ccccc2)CC1)C1CC2(CCN(C(=O)OC(C)(C)C)CC2)c2ccccc21 (centres undefined) | 820
30 | CC(=O)Nc1ccc(C(=O)Nc2cccc(-c3ccc(-c4nc5ccc(C(F)(F)F)cc5[nH]4)cc3)c2)cn1 | 230
31 | Cc1cc(NC(=O)NCCN2CCC(NC(=O)c3cccc(Br)c3)C2)c2ccccc2n1 (centres undefined) | 550
32 | Cc1noc(C)c1-c1cccc(CNCc2ccc(-c3ccc(-c4nc5ccc(C(F)(F)F)cc5[nH]4)cc3)cc2)c1 | 170
33 | CC(=O)c1cccc(NC(=O)NC2CCN(CCCCCNC(=O)/C=C/c3ccc(Cl)c(Cl)c3)CC2)c1 | 840
34 | Cc1cc(-c2ncc[nH]2)ccc1-c1ccc(C(=O)N2CCc3cc4c(cc32)C2(CCN(C)CC2)CO4)cc1 | 800
35 | COc1ccccc1N1CCN(CCCCNC(=O)c2ccc(NC(=O)c3ccc(OC(F)(F)F)cc3)cc2)CC1 | 660
36 | CCC(C)OC(=O)C1=C(C)NC2=C(C(=O)CC(c3ccc(OC)c(OC)c3)C2)C1c1ccc(O)cc1 (centres undefined) | 220
37 | Cc1ccccc1C1CCN(c2ccc(C(=O)Nc3ccc(F)cc3)cn2)CC1 | 190
38 | O=C(NCCCCCCNCc1ccc(-c2ccccc2)cc1)Nc1ccc(Cl)c(Cl)c1 | 960
39 | O=C(NCCN1CCC(NC(=O)c2ccc(-c3ccccn3)s2)CC1)c1cccc(C(F)(F)F)c1 | 860
40 | O=C(NCCCCN1CCC(c2c[nH]c3ccccc23)CC1)c1ccc(-c2ccc(C(F)(F)F)cc2)cc1 | 800
41 | CC[C@H](NC(=O)c1c(CCCN2CCN(c3ccccc3)CC2)c(-c2ccccc2)nc2cc(O)ccc12)c1ccccc1 | 780
42 | Cc1cc(N(C)C)nc(Nc2ccc(NC(=O)C3CCCCC3)cc2)n1 | 1110
43 | O=C(NC1CCN(Cc2ccccc2)CC1)c1cc(C(=O)NC2CCN(Cc3ccccc3)CC2)cc(C(=O)NC2CCN(Cc3ccccc3)CC2)c1 | 1040
44 | O=C(Nc1cccc(C(F)(F)F)c1)Nc1ccc2nonc2c1 | 850
45 | Clc1cc(Cl)c2c(c1)C(NCCCNc1nc3ccccc3[nH]1)CCO2 (centres undefined) | 330
46 | CN1CCN(c2cc3c(cc2Cl)CCN3C(=O)Cc2ccc(Cl)c(NC(=O)Nc3cccc(C#N)c3)c2)CC1 | 640
47 | CCS[C@@H]1O[C@H](COC(=O)c2ccccc2)[C@H](OC(=O)c2ccccc2)[C@H](OC(=O)c2ccccc2)[C@H]1OC(=O)c1ccccc1 | 810
48 | CCNc1cc(C(=O)N[C@@H](Cc2ccccc2)[C@H](O)CNC23CC4CC(CC(C4)C2)C3)cc(N2CCCCS2(=O)=O)c1 | 220

Row | Compound | IC50 [nM]
49 | CN(C)Cc1ccc2cc(NC(=O)c3ccc(-c4ccc(Cl)cc4)cc3)ccc2c1 | 1340
50 | OCCNc1nc(Nc2cccc(O)c2)nc2ccccc12 | 390
51 | CCCC(C)NC(=O)[C@H](Cc1ccccc1)NC(=O)c1ccc(O)c(-c2ccc(OC)cc2)c1 (some centres undefined) | 1240
52 | CC1CCCN(Cc2c(O)ccc3c(=O)c(-c4nc5ccccc5s4)c(N)oc23)C1 (centres undefined) | 140
53 | COc1cc2nc(N3CCN(c4nc(N)c5cc(OC)c(OC)cc5n4)CC3)nc(N)c2cc1OC | 150
54 | CCC(C)(C)c1ccc2nc(N)nc(N)c2c1C | 10
55 | CCCC1(NC[C@@H](O)[C@H](Cc2ccccc2)NC(=O)c2cc(NCC)cc(N3CCCCS3(=O)=O)c2)CCCCC1 | 250
56 | CC(C)Cn1c(Sc2ccc(C#N)c([N+](=O)[O-])c2)nnc1-c1cccc(Cl)c1 | 300
57 | CC(C)CCN(Cc1cncn1Cc1cccc(Cl)c1)C(=O)c1cncc(-c2ccccc2)c1 | 760
58 | CCCC(=O)Nc1ccc(Cl)c(NC(=O)COc2cc(C)ccc2C(C)C)c1 | 930
59 | Cc1cc(N[C@@H](Cc2ccccc2)C(=O)NCc2cccc(F)c2)nc(NCC2CCCCC2)n1 | 850
60 | CN(C)Cc1ccc2cc(NC(=O)c3ccc(-c4ccc(Cl)cc4)cc3)ccc2n1 | 850
61 | Cc1cc(C(=O)CN2C(=O)NC3(CCCc4ccccc43)C2=O)c(C)n1Cc1ccc(F)cc1 (centres undefined) | 970
62 | COc1ccc(N2CCN(CCCOc3ccc(NC(=O)c4cc(Cl)cc(Cl)c4)cc3)CC2)c(OC)c1 | 900
63 | Nc1nc2ncn(COC(COCc3ccccc3)COCc3ccccc3)c2c(=O)[nH]1 (tested in a mixture with another compound) | 710
64 | COc1ccc(-c2nc(NC(=O)CS(=O)(=O)c3ccccc3)sc2C)cc1 | 600
65 | Cc1ccc2c(NN=Cc3ccc(Cl)cc3)cc(C)nc2c1 | 950
66 | O=S(=O)(c1cccc(Br)c1)N1CCCCC(c2ccc(C(F)(F)F)cc2)=N1 | 550
67 | COc1ccc(-c2ccc(CNCc3ccc(F)cc3)cc2)cc1S(=O)(=O)NCCN1CCCC1 | 730
68 | COc1ccc(C(=O)N[C@@H](CC(C)C)C(=O)N[C@H](/C=N/NC(=O)c2ccccc2)CCc2ccccc2)cc1OCCN1CCOCC1 | 170
69 | O=C(NCc1ccccc1)c1ccc(C(=O)NCC2CNCCO2)cc1 (centres undefined) | 1140
70 | Fc1cc(Cl)ccc1Nc1ccnc2cc(-c3ccc(CN4CCCCC4)o3)ccc12 | 340
71 | Cc1ccc(NCC(=O)Nc2ccc(F)c(Cl)c2)cc1S(=O)(=O)N1CCOCC1 | 60
72 | OCC1CCN(Cc2cccc(C#Cc3cc4ncnc(Nc5ccc(OCc6cccc(F)c6)c(Cl)c5)c4s3)n2)CC1 | 550

Row | Compound | IC50 [nM]
73 | Cc1ccn2c(N(Cc3ccccc3)C(=O)c3ccc(Cl)c(Cl)c3)c(-c3ccccc3)nc2c1 | 990
74 | Cc1ccc2ncc(Cl)c(CCN3CCC(NCc4ccc5c(n4)NC(=O)CS5)CC3)c2n1 | 1100
75 | CNCc1ccc2nc(-c3coc(Cc4cc(Cl)ccc4OCC(C)C)n3)[nH]c2c1 | 840
76 | CNCCNCc1ccc(-c2ccc(-c3nc4ccc(C(F)(F)F)cc4[nH]3)s2)cc1 | 600
77 | CCC1CCc2cc(N)cc(-c3nc4c(c(C)nn4CC)c(=O)[nH]3)c2O1 (centres undefined) | 1120
78 | Cc1ccc(NC(=O)c2ccc3ncccc3c2)cc1OC1CCN(Cc2ccsc2)CC1 | 930
79 | CN(/N=C/c1ccc(Cl)cc1)c1nc(NCCc2ccc(O)cc2)nc(N2CCNCC2)n1 | 1350
80 | CCNc1cc(C(=O)N[C@@H](Cc2ccccc2)[C@H](O)CNCCCc2ccc(OC)cc2)cc(N2CCCC2=O)c1 | 560
81 | CNCc1cccc(-c2ccc3ccnc(N)c3c2)c1 | 90
82 | CC(=O)Nc1ccc(C(=O)Nc2cccc(-c3cccc(-c4nc5ccccc5[nH]4)c3)c2)cn1 | 200
83 | Cc1cnn(-c2cccc(C(=O)NC3CCC(CCN4CCc5ccc(C#N)cc5CC4)CC3)c2)c1 (centres undefined) | 930
84 | CCCC(C)n1ccc2c3c(N)nc(N)nc3ccc21 (centres undefined) | 50
85 | COC(=O)C(Cc1ccccc1)C(CSCc1ccc(OC)cc1)C(=O)N[C@@H](C(=O)OC(C)(C)C)c1ccc(C(C)(C)C)cc1 (some centres undefined) | 1030
86 | COc1cc2nc(SCCCC#N)n(C3CCCCCC3)c(=N)c2cc1OC | 1140
87 | CN(C)CCC1CCCc2ccc(NC(=O)Nc3ccc(-c4ccncc4)c4ccccc34)cc21 (centres undefined) | 1070
88 | Cc1cc(NC(=O)Nc2ccc(Cl)cc2F)c2ccccc2n1 | 550
89 | CCc1ccccc1N1CCN(CCCC(=O)c2ccc(NC(=O)c3cc(Cl)cc(Cl)c3)cc2)CC1 | 290
90 | CC1CCC2(CC1)N=C(N)N=C(N)N2OCCCCCCCCO (centres undefined) | 150
91 | CN(C)CCCN(C)c1cccc2c1nc(-c1cccnc1)n2CCNCc1ccccc1 | 1390
92 | O=C(NCCCCN1CCC(c2ccc([N+](=O)[O-])cc2)CC1)c1ccc(NC(=O)c2ccc(Cl)cc2)cc1 | 760
93 | O=C(Nc1cccc(-c2cccc(-c3nc4ccccc4[nH]3)c2)c1)Nc1ccc(F)c(F)c1F | 60
94 | COc1cc(Cc2cnc(N)nc2N)cc(OCCCCCCC(=O)O)c1OC | 940
